Literature values, collected in patent US20100113469A1, “COMBINATION THERAPY FOR THE TREATMENT-OF LOWER URINARY TRACT SYMPTOMS” (MERCK & CO., INC., priority 2007, published 2010).

How the values were obtained:
[1] = tested on: rats; conditions: intravenous
[2] = tested on: rats; conditions: hyperreflexia paradigms, intravenous
[3] = tested on: rats; conditions: detrusor instability paradigm, oral
[4] = tested on: patients; conditions: instilled directly into the bladder
[5] = tested on: human bladders; conditions: in vitro
[6] = tested on: rats
[7] = tested on: C-fibers
[8] = tested on: decerebrate cats
[9] = tested on: guinea pig
[10] = tested on: isolated bladder strips

C[C@H](Cc1ccc2c(c1)OC(C(=O)[O-])(C(=O)[O-])O2)NC[C@H](O)c1cccc(Cl)c1.[Na+].[Na+] [CL316243]
bladder pressure [1]: reduces bladder pressure | bladder capacity ([1]; cystometric studies): increases bladder capacity | residual urine volume ([1]; cystometric studies): without increasing residual urine volume | voiding interval [2]: dose-dependently normalizes voiding interval | spontaneous bladder contractions [3]: dose-dependent inhibition of spontaneous bladder contractions

COc1cc(CNC(=O)CCCC/C=C/C(C)C)ccc1O [Capsaicin, capsaicin]
patients with beneficial effects (i.e. increased bladder capacity) [4]: ~70%

CCCCCCNC(=O)Nc1ccc(S(=O)(=O)Nc2ccc(CCNC[C@H](O)COc3ccc(O)cc3)cc2)cc1 [L-755507]
relaxation evoked in control versus obstructed human bladders [5]: equivalent

COc1ccccc1CC(=N)N1C[C@@H]2C(=O)CCC(c3ccccc3)(c3ccccc3)[C@@H]2C1 [RP 67580]
volume threshold ([6]; cyclophosphamide-induced bladder overactivity, i.t. vs i.v.): increased the volume threshold after i.t., but not i.v. administration

C=C(C)[C@]12C[C@@H](C)[C@@]34O[C@](Cc5ccccc5)(O[C@@H]1[C@@H]3C=C(COC(=O)Cc1ccc(O)c(OC)c1)C[C@]1(O)C(=O)C(C)=C[C@@H]41)O2 [Resinferatoxin]
potency relative to capsaicin [7]: ~100 fold

CC(=O)NC1(c2ccccc2)CCN(CC[C@H](CN(C)C(=O)c2ccccc2)c2ccc(Cl)c(Cl)c2)CC1 [SR 48968]
response in cyclophosphamide-induced model ([6]; 10 nmol/rat): moderate response

Cc1ccc(-c2c3n(c(=O)c4ncccc24)CC[C@@H](C)CN(Cc2cc(C(F)(F)F)cc(C(F)(F)F)c2)C3=O)cc1 [TAK-637]
micturition reflex induced by electrical stimulation of the rostral brainstem near the locus coeruleus ([8]; 3 mg/kg i.v.): did not inhibit | voiding efficiency ([8]; decerebrate cats, 0.1, 0.3, 1 and 3 mg/kg i.v.): without any significant reduction in voiding efficiency | maximal increase in bladder capacity ([8]; decerebrate cats, 0.1, 0.3, 1 and 3 mg/kg i.v., dose-dependent): 94% | micturition reflex induced by topical application of capsaicin onto the bladder dome ([9]; guinea pig, in vivo): inhibited the micturition reflex | distension-induced rhythmic bladder contractions ([9]; guinea pig, systemic administration): decreased the number but not the amplitude | spinal vesico-vesical reflex induced by electrical stimulation of the proximal cut end of the pelvic nerve ([9]; spinal animals): inhibits the spinal vesico-vesical reflex | carbachol or electrical field stimulation induced contractions [10]: had no effect
